Assay results reported in PubChem BioAssay (NCI).
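96-well plates; 48 h exposure; 5 concentrations. Endpoints by linear interpolation between flanking doses. Not reached: highest tested concentration assigned. At the GI50, growth is halved. TGI marks complete inhibition of growth.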

Tests used:
Experiment in all cases: DTP human tumour cell line panel, 48 h
HS 578T breast = system: HS 578T breast
OVCAR-5 ovarian = system: OVCAR-5 ovarian
U251 CNS = system: U251 CNS
MDA-MB-231 breast = system: MDA-MB-231 breast
IGROV1 ovarian = system: IGROV1 ovarian
SNB-19 CNS = system: SNB-19 CNS
DU-145 prostate = system: DU-145 prostate
HOP-92 NSCLC = system: HOP-92 NSCLC
PC-3 prostate = system: PC-3 prostate
BT-549 breast = system: BT-549 breast
RXF 393 renal = system: RXF 393 renal
SF-295 CNS = system: SF-295 CNS
OVCAR-4 ovarian = system: OVCAR-4 ovarian
SK-MEL-2 melanoma = system: SK-MEL-2 melanoma
T-47D breast = system: T-47D breast
HL-60(TB) leukemia = system: HL-60(TB) leukemia
NCI-H522 lung = system: NCI-H522 lung
HCC-2998 colon = system: HCC-2998 colon
SF-268 CNS = system: SF-268 CNS
A549 NSCLC = system: A549 NSCLC
SK-OV-3 ovarian = system: SK-OV-3 ovarian
HOP-62 NSCLC = system: HOP-62 NSCLC
OVCAR-8 ovarian = system: OVCAR-8 ovarian
ACHN renal = system: ACHN renal
MOLT-4 leukemia = system: MOLT-4 leukemia
HT29 colon = system: HT29 colon
SNB-75 CNS = system: SNB-75 CNS
COLO 205 colon = system: COLO 205 colon
NCI-H460 lung = system: NCI-H460 lung
NCI-H23 lung = system: NCI-H23 lung
SR leukemia = system: SR leukemia
SN12C renal = system: SN12C renal
EKVX NSCLC = system: EKVX NSCLC
TK-10 renal = system: TK-10 renal
M14 melanoma = system: M14 melanoma
CCRF-CEM leukemia = system: CCRF-CEM leukemia
UO-31 renal = system: UO-31 renal
MCF7 breast = system: MCF7 breast
NCI-H226 lung = system: NCI-H226 lung
LOX IMVI melanoma = system: LOX IMVI melanoma
CAKI-1 renal = system: CAKI-1 renal
RPMI-8226 leukemia = system: RPMI-8226 leukemia
SF-539 CNS = system: SF-539 CNS
HCT-116 colon = system: HCT-116 colon
HCT-15 colon = system: HCT-15 colon
UACC-62 melanoma = system: UACC-62 melanoma
MDA-MB-435 = system: MDA-MB-435
786-0 renal = system: 786-0 renal
A498 renal = system: A498 renal
SW-620 colon = system: SW-620 colon
MALME-3M melanoma = system: MALME-3M melanoma
KM12 colon = system: KM12 colon
SK-MEL-5 melanoma = system: SK-MEL-5 melanoma
UACC-257 melanoma = system: UACC-257 melanoma
OVCAR-3 ovarian = system: OVCAR-3 ovarian

COc1ccc(NC(=O)c2sc3nc(C)c(C(=O)/C=C/c4ccccc4)cc3c2N)cc1
GI50 (HS 578T breast): 2050 nM | TGI (HS 578T breast): > 50000 nM | GI50 (OVCAR-5 ovarian): 1110 nM | TGI (OVCAR-5 ovarian): 3260 nM | GI50 (U251 CNS): 889 nM | TGI (U251 CNS): 1680 nM | GI50 (MDA-MB-231 breast): 1760 nM | TGI (MDA-MB-231 breast): 12600 nM | GI50 (IGROV1 ovarian): 859 nM | TGI (IGROV1 ovarian): 2090 nM | GI50 (SNB-19 CNS): 1300 nM | TGI (SNB-19 CNS): 4020 nM | GI50 (DU-145 prostate): 1300 nM | TGI (DU-145 prostate): 3720 nM | GI50 (HOP-92 NSCLC): 1390 nM | TGI (HOP-92 NSCLC): 6650 nM | GI50 (PC-3 prostate): 1250 nM | TGI (PC-3 prostate): 3890 nM | GI50 (BT-549 breast): 938 nM | TGI (BT-549 breast): 2230 nM | GI50 (RXF 393 renal): 820 nM | TGI (RXF 393 renal): 1620 nM | GI50 (SF-295 CNS): 1870 nM | TGI (SF-295 CNS): 9200 nM | GI50 (OVCAR-4 ovarian): 4430 nM | TGI (OVCAR-4 ovarian): > 50000 nM | GI50 (SK-MEL-2 melanoma): 3780 nM | TGI (SK-MEL-2 melanoma): 17500 nM | GI50 (T-47D breast): 1250 nM | TGI (T-47D breast): 4370 nM | GI50 (HL-60(TB) leukemia): 971 nM | TGI (HL-60(TB) leukemia): 2500 nM | GI50 (NCI-H522 lung): 943 nM | TGI (NCI-H522 lung): 2420 nM | GI50 (HCC-2998 colon): 901 nM | TGI (HCC-2998 colon): 1760 nM | GI50 (SF-268 CNS): 1570 nM | TGI (SF-268 CNS): 5930 nM | GI50 (A549 NSCLC): 749 nM | TGI (A549 NSCLC): 2130 nM | GI50 (SK-OV-3 ovarian): 3330 nM | TGI (SK-OV-3 ovarian): 12700 nM | GI50 (HOP-62 NSCLC): 1260 nM | TGI (HOP-62 NSCLC): 3160 nM | GI50 (OVCAR-8 ovarian): 1420 nM | TGI (OVCAR-8 ovarian): 5220 nM | GI50 (ACHN renal): 888 nM | TGI (ACHN renal): 1740 nM | GI50 (MOLT-4 leukemia): 1430 nM | TGI (MOLT-4 leukemia): > 50000 nM | GI50 (HT29 colon): 883 nM | TGI (HT29 colon): 1940 nM | GI50 (SNB-75 CNS): 1220 nM | TGI (SNB-75 CNS): 3530 nM | GI50 (COLO 205 colon): 1430 nM | TGI (COLO 205 colon): 5180 nM | GI50 (NCI-H460 lung): 931 nM | TGI (NCI-H460 lung): 2080 nM | GI50 (NCI-H23 lung): 1570 nM | TGI (NCI-H23 lung): 6090 nM | GI50 (SR leukemia): 1070 nM | TGI (SR leukemia): 4000 nM | GI50 (SN12C renal): 1100 nM | TGI (SN12C renal): 2850 nM | GI50 (EKVX NSCLC): 1620 nM | TGI (EKVX NSCLC): 8850 nM | GI50 (TK-10 renal): 1350 nM | TGI (TK-10 renal): 3590 nM | GI50 (M14 melanoma): 1750 nM | TGI (M14 melanoma): 10300 nM | GI50 (CCRF-CEM leukemia): 1260 nM | TGI (CCRF-CEM leukemia): 9940 nM | GI50 (UO-31 renal): 748 nM | TGI (UO-31 renal): 1440 nM | GI50 (MCF7 breast): 815 nM | TGI (MCF7 breast): 6000 nM | GI50 (NCI-H226 lung): 1110 nM | TGI (NCI-H226 lung): 2870 nM | GI50 (LOX IMVI melanoma): 863 nM | TGI (LOX IMVI melanoma): 1610 nM | GI50 (CAKI-1 renal): 953 nM | TGI (CAKI-1 renal): 1820 nM | GI50 (RPMI-8226 leukemia): 860 nM | TGI (RPMI-8226 leukemia): 2740 nM | GI50 (SF-539 CNS): 951 nM | TGI (SF-539 CNS): 1840 nM | GI50 (HCT-116 colon): 849 nM | TGI (HCT-116 colon): 1780 nM | GI50 (HCT-15 colon): 892 nM | TGI (HCT-15 colon): 2070 nM | GI50 (UACC-62 melanoma): 934 nM | TGI (UACC-62 melanoma): 1960 nM | GI50 (MDA-MB-435): 1040 nM | TGI (MDA-MB-435): 2960 nM | GI50 (786-0 renal): 821 nM | TGI (786-0 renal): 1670 nM | GI50 (A498 renal): 890 nM | TGI (A498 renal): 3220 nM | GI50 (SW-620 colon): 966 nM | TGI (SW-620 colon): 2240 nM | GI50 (MALME-3M melanoma): 1930 nM | TGI (MALME-3M melanoma): 21600 nM | GI50 (KM12 colon): 897 nM | TGI (KM12 colon): 1870 nM | GI50 (SK-MEL-5 melanoma): 2030 nM | TGI (SK-MEL-5 melanoma): 7220 nM | GI50 (UACC-257 melanoma): 1190 nM | TGI (UACC-257 melanoma): 3560 nM | GI50 (OVCAR-3 ovarian): 1090 nM | TGI (OVCAR-3 ovarian): 2730 nM
